Earlier results as cited in patent US20140170287A1, “METHODS FOR PREPARING AND COMPOSITIONS COMPRISING PLANT SEED-BASED OMEGA-3 FATTY ACIDS” (Living Healthy World LLC, priority 2012, published 2014).

Test system: C-reactive protein (CRP)
Conditions: consumption of ALA in flaxseeds; CRP as marker of the inflammatory status in the cardiovascular system

## CC/C=C\C/C=C\C/C=C\CCCCCCCC(=O)O [ALA, alpha-linolenic acid]
  decrease of blood levels of C-reactive protein (CRP): 10-15%
